Laboratory results reported in PubChem BioAssay (NCI).
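In this assay, cells in 96-well plates receive the compound at five concentrations for 48 hours. Endpoints are linearly interpolated between the surrounding concentrations. GI50 = concentration required for 50% inhibition of growth. At the TGI there is no net growth.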

Columns and labels:
Assay in all cases: DTP human tumour cell line panel, 48 h
OVCAR-4 ovarian = test system: OVCAR-4 ovarian
NCI-H460 lung = test system: NCI-H460 lung
SN12C renal = test system: SN12C renal
A549 NSCLC = test system: A549 NSCLC
NCI-H23 lung = test system: NCI-H23 lung
KM12 colon = test system: KM12 colon
UACC-257 melanoma = test system: UACC-257 melanoma
A498 renal = test system: A498 renal
K-562 leukemia = test system: K-562 leukemia
HL-60(TB) leukemia = test system: HL-60(TB) leukemia
MDA-MB-435 = test system: MDA-MB-435
ACHN renal = test system: ACHN renal
TK-10 renal = test system: TK-10 renal
MOLT-4 leukemia = test system: MOLT-4 leukemia
HS 578T breast = test system: HS 578T breast
SR leukemia = test system: SR leukemia
BT-549 breast = test system: BT-549 breast
HOP-92 NSCLC = test system: HOP-92 NSCLC
786-0 renal = test system: 786-0 renal
HCT-15 colon = test system: HCT-15 colon
OVCAR-5 ovarian = test system: OVCAR-5 ovarian
HCC-2998 colon = test system: HCC-2998 colon
T-47D breast = test system: T-47D breast
OVCAR-8 ovarian = test system: OVCAR-8 ovarian
CCRF-CEM leukemia = test system: CCRF-CEM leukemia
HCT-116 colon = test system: HCT-116 colon
SNB-19 CNS = test system: SNB-19 CNS
SK-MEL-5 melanoma = test system: SK-MEL-5 melanoma
UO-31 renal = test system: UO-31 renal
MALME-3M melanoma = test system: MALME-3M melanoma
IGROV1 ovarian = test system: IGROV1 ovarian
SK-OV-3 ovarian = test system: SK-OV-3 ovarian
NCI-H522 lung = test system: NCI-H522 lung
RXF 393 renal = test system: RXF 393 renal
U251 CNS = test system: U251 CNS
EKVX NSCLC = test system: EKVX NSCLC
NCI-H226 lung = test system: NCI-H226 lung
OVCAR-3 ovarian = test system: OVCAR-3 ovarian
CAKI-1 renal = test system: CAKI-1 renal
DU-145 prostate = test system: DU-145 prostate
M14 melanoma = test system: M14 melanoma
SF-539 CNS = test system: SF-539 CNS
UACC-62 melanoma = test system: UACC-62 melanoma
HOP-62 NSCLC = test system: HOP-62 NSCLC
NCI/ADR-RES ovarian = test system: NCI/ADR-RES ovarian
SW-620 colon = test system: SW-620 colon
COLO 205 colon = test system: COLO 205 colon
MDA-MB-231 breast = test system: MDA-MB-231 breast
LOX IMVI melanoma = test system: LOX IMVI melanoma
SNB-75 CNS = test system: SNB-75 CNS
MCF7 breast = test system: MCF7 breast
SF-268 CNS = test system: SF-268 CNS
SK-MEL-28 melanoma = test system: SK-MEL-28 melanoma
HT29 colon = test system: HT29 colon
SK-MEL-2 melanoma = test system: SK-MEL-2 melanoma
SF-295 CNS = test system: SF-295 CNS
PC-3 prostate = test system: PC-3 prostate

## O=C(O)CCCN1C(=O)/C(=C/C(Cl)=C/c2ccccc2)SC1=S
OVCAR-4 ovarian
  GI50: 2.77 µM
  TGI: 14.3 µM
NCI-H460 lung
  GI50: 2.47 µM
  TGI: 6.76 µM
SN12C renal
  GI50: 2.05 µM
  TGI: 6.79 µM
A549 NSCLC
  GI50: 3.02 µM
  TGI: 11.9 µM
NCI-H23 lung
  GI50: 2.34 µM
  TGI: 6.27 µM
KM12 colon
  GI50: 1.47 µM
  TGI: 3.54 µM
UACC-257 melanoma
  GI50: 1.75 µM
  TGI: 6.8 µM
A498 renal
  GI50: 1.96 µM
  TGI: 3.57 µM
K-562 leukemia
  GI50: 1.52 µM
  TGI: 16.3 µM
HL-60(TB) leukemia
  GI50: 0.551 µM
  TGI: 10.5 µM
MDA-MB-435
  GI50: 1.94 µM
  TGI: 5.96 µM
ACHN renal
  GI50: 1.2 µM
  TGI: 4.4 µM
TK-10 renal
  GI50: 3.73 µM
  TGI: 9.6 µM
MOLT-4 leukemia
  GI50: 0.591 µM
  TGI: 11.9 µM
HS 578T breast
  GI50: 2.73 µM
  TGI: 10.6 µM
SR leukemia
  GI50: 0.719 µM
  TGI: 15.3 µM
BT-549 breast
  GI50: 1.91 µM
  TGI: 4.8 µM
HOP-92 NSCLC
  GI50: 3.17 µM
  TGI: 9.78 µM
786-0 renal
  GI50: 2.33 µM
  TGI: 6.39 µM
HCT-15 colon
  GI50: 1.03 µM
  TGI: 6.06 µM
OVCAR-5 ovarian
  GI50: 2.48 µM
  TGI: 5.78 µM
HCC-2998 colon
  GI50: 1.83 µM
  TGI: 3.41 µM
T-47D breast
  GI50: 1.89 µM
  TGI: 5.38 µM
OVCAR-8 ovarian
  GI50: 1.48 µM
  TGI: 13.8 µM
CCRF-CEM leukemia
  GI50: 0.786 µM
  TGI: 10.2 µM
HCT-116 colon
  GI50: 1.13 µM
  TGI: 4 µM
SNB-19 CNS
  GI50: 2.78 µM
  TGI: 10.9 µM
SK-MEL-5 melanoma
  GI50: 1.72 µM
  TGI: 3.16 µM
UO-31 renal
  GI50: 1.07 µM
  TGI: 2.48 µM
MALME-3M melanoma
  GI50: 2.09 µM
  TGI: 5.24 µM
IGROV1 ovarian
  GI50: 2.07 µM
  TGI: 6.04 µM
SK-OV-3 ovarian
  GI50: 6.24 µM
  TGI: 19 µM
NCI-H522 lung
  GI50: 2.21 µM
  TGI: 6.62 µM
RXF 393 renal
  GI50: 1.36 µM
  TGI: 2.78 µM
U251 CNS
  GI50: 1.8 µM
  TGI: 4.63 µM
EKVX NSCLC
  GI50: 2.21 µM
  TGI: 5.91 µM
NCI-H226 lung
  GI50: 2.98 µM
  TGI: 18.4 µM
OVCAR-3 ovarian
  GI50: 1.39 µM
  TGI: 3.21 µM
CAKI-1 renal
  GI50: 1.66 µM
  TGI: 3.76 µM
DU-145 prostate
  GI50: 1.79 µM
  TGI: 4.39 µM
M14 melanoma
  GI50: 1.81 µM
  TGI: 5.12 µM
SF-539 CNS
  GI50: 1.98 µM
  TGI: 4.85 µM
UACC-62 melanoma
  GI50: 1.47 µM
  TGI: 3.62 µM
HOP-62 NSCLC
  GI50: 2.94 µM
  TGI: 10.5 µM
NCI/ADR-RES ovarian
  GI50: 2.39 µM
  TGI: 9.35 µM
SW-620 colon
  GI50: 1.3 µM
  TGI: 3.86 µM
COLO 205 colon
  GI50: 1.9 µM
  TGI: 4.49 µM
MDA-MB-231 breast
  GI50: 3.17 µM
  TGI: 10.7 µM
LOX IMVI melanoma
  GI50: 0.383 µM
  TGI: 1.38 µM
SNB-75 CNS
  GI50: 1.23 µM
  TGI: 4.33 µM
MCF7 breast
  GI50: 0.6 µM
  TGI: 11.4 µM
SF-268 CNS
  GI50: 2.5 µM
  TGI: 7.41 µM
SK-MEL-28 melanoma
  GI50: 1.66 µM
  TGI: 3.47 µM
HT29 colon
  GI50: 2.85 µM
  TGI: 10.6 µM
SK-MEL-2 melanoma
  GI50: 2.47 µM
  TGI: 7.61 µM
SF-295 CNS
  GI50: 2.57 µM
  TGI: 7.16 µM
PC-3 prostate
  GI50: 2.23 µM
  TGI: 10.3 µM
